Earlier results, collected in publication PMC5510229, “BCAT1 controls metabolic reprogramming in activated human macrophages and is associated with inflammatory diseases” (Nature Communications, 2017).

Tests used:
[1] = test system: a2δ−1 and a2δ−2 subunits of voltage-activated calcium channels; set-up: method as in PMID 19128880; conditions: cited from earlier work
[2] = set-up: method as in PMID 10381778; conditions: cited from earlier work

NCC1(CC(=O)O)CCCCC1 [gabapentin]
binding affinity [1]: high affinity
anti-inflammatory effects [2]: no apparent anti-inflammatory effects
